“And” between values parts separate entries of the source, which are not always exact repeats. Equal entries are not always repeated.
system: lipase; assay: Lipase/lipolysis assay (EnzChek Lipase Substrate, quenched BODIPY-fatty acid conjugate) on stored human milk; further: test concentration or dose not given here

Structure (SMILES) | Lipase (RFU)
COc1cc2c(CCNC(C)=O)c[nH]c2cc1O [Compound 6-Hydroxymelatonin] | 976.0382 RFU
CC(C)CCC[C@@H](C)[C@H]1CC[C@H]2C3=CC=C4C[C@@H](O)CC[C@]4(C)[C@H]3CC[C@]12C [Compound 7-Dehydrocholesterol] | 820.8412 RFU
C[n+]1cn([C@@H]2O[C@H](CO)[C@@H](O)[C@H]2O)c2nc(N)[nH]c(=O)c21 [Compound 7-Methylguanosine, 7-Methylguanosine] | 974.6149 RFU
CC(C)=CCc1c(O)c(CC=C(C)C)c2oc3c(O)cccc3c(=O)c2c1O [Compound 8-Deoxygartanin] | 1168.142 RFU
CCCCCCC[C@H](O)CC(=O)CCc1ccc(O)c(OC)c1 [Compound 8-Gingerol] | 724.4815 RFU
COc1c2ccoc2c(O)c2oc(=O)ccc12 [Compound 8-Hydroxybergapten] | 800.3718 RFU
CCCCCCCCC[C@H](O)CC(=O)CCc1ccc(O)c(OC)c1 [Compound 10-Gingerol] | 817.7781 RFU
CC(=O)C1=CC[C@H]2[C@@H]3CCC4=CC(=O)CC[C@]4(C)[C@H]3CC[C@]12C [Compound 16-Dehydroprogesterone] | 1000.658 RFU
CC(=O)[C@@]1(O)CC[C@H]2[C@@H]3CC=C4C[C@@H](O)CC[C@]4(C)[C@H]3CC[C@@]21C [Compound 17a-Hydroxypregnenolone] | 861.6395 RFU
C[C@]12CCC(=O)C=C1CC[C@@H]1[C@@H]2C(=O)C[C@@]2(C)[C@H]1CC[C@]2(O)C(=O)CO [Cortisone] | 1233.864 RFU
c1ccc2c(c1)CCO2 [Coumaran] | 980.2989 RFU
COc1cc(C)ccc1O [Creosol] | 835.9293 RFU and 462.1743 RFU
O=C(/C=C/c1ccc(O)c(O)c1)O[C@H]1[C@H](O)C[C@](O)(C(=O)O)C[C@H]1O [Cryptochlorogenic acid] | 1264.679 RFU
CC(=O)OC(C)(C)/C=C/C(=O)[C@](C)(O)[C@H]1[C@H](O)C[C@@]2(C)[C@@H]3CC=C4[C@H](C[C@H](O)C(=O)C4(C)C)[C@]3(C)C(=O)C[C@]12C [Cucurbitacin B] | 789.0588 RFU
CC(C)(O)/C=C/C(=O)[C@](C)(O)[C@H]1[C@H](O)C[C@@]2(C)[C@@H]3CC=C4[C@@H](C[C@H](O)C(=O)C4(C)C)[C@]3(C)C(=O)C[C@]12C [Cucurbitacin D] | 937.0398 RFU
CC(=O)OC(C)(C)/C=C/C(=O)[C@](C)(O)[C@H]1[C@H](O)C[C@@]2(C)[C@@H]3CC=C4[C@@H](C=C(O)C(=O)C4(C)C)[C@]3(C)C(=O)C[C@]12C [Cucurbitacin E] | 641.6726 RFU
Nc1nc2c(ncn2[C@@H]2O[C@@H]3COP(=O)([O-])O[C@H]3[C@H]2O)c(=O)[nH]1.[Na+] [Cyclic GMP (sodium)] | 1109.907 RFU
CC(=O)N[C@@H]1C(O)O[C@H](CO)[C@@H](O)[C@@H]1O (stereo partly drawn) [Cyclic N-Acetyl-D-mannosamine] | 868.6631 RFU
O=C(O)C(F)(F)F.O=C1N[C@@H](Cc2cnc[nH]2)C(=O)N2CCC[C@@H]12 [Cyclo(his-pro) (TFA)] | 956.1787 RFU
C=C(CO)C(=O)O[C@H]1CC(=C)[C@@H]2C[C@H](O)C(=C)[C@@H]2[C@H]2OC(=O)C(=C)[C@@H]21 [Cynaropicrin] | 1182.791 RFU
O=c1cc(-c2ccc(O)c(O)c2)oc2cc(O[C@@H]3O[C@H](CO)[C@@H](O)[C@H](O)[C@H]3O)cc(O)c12 [Cynaroside] | 1111.46 RFU
N[C@@H](CS)C(=O)NCC(=O)O.O=C(O)C(F)(F)F [Cysteinylglycine (TFA)] | 954.0897 RFU

Structure (SMILES) | Lipase (RFU)
Nc1ccn([C@@H]2O[C@H](COP(=O)([O-])OP(=O)([O-])OP(=O)(O)O)[C@@H](O)[C@H]2O)c(=O)n1.[Na+].[Na+] [Cytidine-5′-triphosphate (disodium)] | 1141.901 RFU
O=C(O)C(O)COP(=O)(O)O [D-3-Phospho-Glyceric Acid] | 875.2279 RFU
OC[C@H]1O[C@@H](O[C@H]2[C@H](O)[C@@H](O)[C@H](O)O[C@@H]2CO)[C@H](O)[C@@H](O)[C@@H]1O [D-(+)-Cellobiose] | 821.3157 RFU
OC[C@H]1O[C@@](CO)(O[C@H]2O[C@H](CO)[C@@H](O)[C@H](O)[C@H]2O)[C@@H](O[C@H]2O[C@H](CO)[C@@H](O)[C@H](O)[C@H]2O)[C@@H]1O [D-(+)-Melezitose] | 886.4563 RFU
O.O.OC[C@H]1O[C@H](O[C@H]2O[C@H](CO)[C@@H](O)[C@H](O)[C@H]2O)[C@H](O)[C@@H](O)[C@@H]1O [D-(+)-Trehalose dihydrate] | 1045.976 RFU
OC[C@H]1O[C@H](O[C@H]2O[C@H](CO)[C@@H](O)[C@H](O)[C@H]2O)[C@H](O)[C@@H](O)[C@@H]1O [D-(+)-Trehalose] | 893.2005 RFU and 909.0228 RFU
OC[C@H]1OC(O)[C@H](O)[C@@H](O)[C@@H]1O (stereo partly drawn) [D--Glucose] | 992.2563 RFU
OC[C@@H](O)C(O)[C@H](O)CO [D-Arabitol] | 977.3738 RFU and 986.8626 RFU
N=C(N)NCCC[C@@H](N)C(=O)O [D-Arginine] | 1215.288 RFU
OC[C@H]1O[C@@H](O[C@H]2[C@H](O)[C@@H](O)[C@H](O)O[C@@H]2CO)[C@H](O)[C@@H](O)[C@@H]1O [D-Cellobiose] | 785.8282 RFU
C[C@@H]1NC(=O)N[C@@H]1CCCCCC(=O)O [D-Desthiobiotin] | 791.1157 RFU
CCCCCCCCCCCCCCC[C@@H](O)[C@@H](N)CO [D-Erythro-dihydrosphingosine] | 1051.007 RFU
O=C(O)[C@H](O)[C@@H](O)[C@H](O)[C@H](O)CO [D-Gluconic Acid] | 876.4287 RFU
N[C@@H](C(=O)O)[C@@H](O)[C@H](O)[C@H](O)CO [D-Glucosaminic Acid] | 794.5821 RFU
O=C[C@H](O)[C@@H](O)[C@H](O)[C@H](O)COP(=O)([O-])[O-].[Na+].[Na+] [D-Glucose 6-phosphate (disodium salt)] | 1238.699 RFU
O=P(O)(O)O[C@H]1O[C@H](CO)[C@@H](O)[C@H](O)[C@H]1O [D-Glucose-1-Phosphate] | 853.7765 RFU and 929.0604 RFU
O=C[C@H](O)[C@H]1OC(=O)[C@@H](O)[C@H]1O [D-Glucuronic acid lactone] | 1111.254 RFU
N[C@H](CCC(=O)O)C(=O)O [D-Glutamic Acid] | 1176.72 RFU
O=C(O)C[C@@H](O)C(=O)O [D-Malic Acid] | 752.7528 RFU
O=P(O)(O)O[C@H]1O[C@H](CO)[C@@H](O)[C@H](O)[C@@H]1O [D-Mannose-1-Phosphate] | 1121.007 RFU
OC[C@H]1O[C@@](CO)(O[C@H]2O[C@H](CO)[C@@H](O)[C@H](O)[C@H]2O)[C@@H](O[C@H]2O[C@H](CO)[C@@H](O)[C@H](O)[C@H]2O)[C@@H]1O [D-Melezitose] | 1021.506 RFU
OC[C@H]1O[C@H](OCC2O[C@@H](O)[C@H](O)[C@@H](O)[C@@H]2O)[C@H](O)[C@@H](O)[C@H]1O (stereo partly drawn) [D-Melibiose] | 850.0787 RFU and 747.8737 RFU

Structure (SMILES) | Lipase (RFU)
OC[C@H]1O[C@H](OC[C@H]2O[C@H](O[C@H]3[C@H](O)[C@@H](O)C(O)O[C@@H]3CO)[C@H](O)[C@@H](O)[C@@H]2O)[C@H](O)[C@@H](O)[C@@H]1O (stereo partly drawn) [D-Panose] | 982.4149 RFU
O=C(CO)[C@H](O)[C@H](O)[C@H](O)CO [D-Psicose] | 990.8733 RFU
OC[C@H]1O[C@H](OC[C@H]2O[C@H](O[C@]3(CO)O[C@H](CO)[C@@H](O)[C@@H]3O)[C@H](O)[C@@H](O)[C@@H]2O)[C@H](O)[C@@H](O)[C@H]1O [D-Raffinose] | 981.0683 RFU
O=C1O[C@H](CO)[C@@H](O)[C@H]1O [D-Ribonolactone] | 702.8507 RFU
O=C(CO)[C@@H](O)[C@@H](O)[C@H](O)CO [D-Tagatose] | 939.2844 RFU
O=C(O)[C@@H](O)[C@H](O)C(=O)O [D-Tartaric Acid] | 685.8128 RFU
OC1C(O)C(O)C(O)C(O)C1O [D-chiro-Inositol] | 896.4132 RFU
CCCCCCCCCCCCC/C=C/[C@@H](O)[C@@H](N)CO [D-erythro-Sphingosine] | 823.3956 RFU
CC(=O)Oc1c(C)c(C)c2c(c1C)CCC(C)(CCC[C@H](C)CCC[C@H](C)CCCC(C)C)O2 (stereo partly drawn) [D-α-Tocopherol acetate] | 1194.717 RFU
CC1=C(C)C(=O)C(CC[C@](C)(O)CCC[C@H](C)CCC[C@H](C)CCCC(C)C)=C(C)C1=O [D-α-Tocopherylquinone] | 598.2224 RFU
COc1ccc2c(c1)OC(O)C(=O)N2O (stereo not drawn) [DIMBOA] | 910.6705 RFU
CCCCCCCCCCCCCCCC(=O)OC[C@H](COP(=O)([O-])OCC[N+](C)(C)C)OC(=O)CCCCCCCCCCCCCCC [DPPC] | 959.6761 RFU
O=c1c(-c2ccc(O)cc2)coc2cc(O[C@@H]3O[C@H](CO)[C@@H](O)[C@H](O)[C@H]3O)ccc12 [Daidzin] | 828.0829 RFU
C/C=C/C(=O)C1=C(C)C=CCC1(C)C [Damascenone] | 912.4849 RFU
O=C([O-])C(O)Cc1ccc(O)c(O)c1.[Na+] (stereo not drawn) [Danshensu (sodium salt)] | 948.7665 RFU
CCCCCCCCCC=O [Decyl aldehyde] | 807.9785 RFU and 682.2968 RFU
COc1cc2c(cc1OC)[C@@H]1C(=O)c3ccc4c(c3O[C@@H]1CO2)C=CC(C)(C)O4 [Deguelin] | 955.3932 RFU
OC[C@H]1O[C@@H](Oc2cc3c(O)cc(O)cc3[o+]c2-c2cc(O)c(O)c(O)c2)[C@H](O)[C@@H](O)[C@@H]1O.[Cl-] [Delphinidin 3-glucoside (chloride)] | 843.0852 RFU
Oc1cc(O)c2cc(O)c(-c3cc(O)c(O)c(O)c3)[o+]c2c1.[Cl-] [Delphinidin (chloride)] | 816.1782 RFU
Cc1cc(O)cc2c1O[C@](C)(CCC[C@H](C)CCC[C@H](C)CCCC(C)C)CC2 [Delta-Tocopherol] | 1328.881 RFU
CC(=O)c1ccc2c(c1)C=CC(C)(C)O2 [Demethoxyencecalin] | 1050.951 RFU
CC(C)=CCc1cc2ccc(=O)oc2cc1O [Demethylsuberosin] | 917.5135 RFU
